From the NIST ThermoML archive (doi:10.1016/j.jct.2016.09.026)

Legend:
[1] = molar enthalpy of vaporization or sublimation; details: 341.73 K; Liquid; Static calorimetry
[2] = molar heat capacity at constant pressure; details: 101.33 kPa, Crystal, Small sample (50 mg) DSC

CCCCC(=O)c1ccc(O)cc1 [1-(4-hydroxyphenyl)-1-pentanone]
Details	molar enthalpy [kcal/mol]
[1]	22.96

[2]
Details	molar heat capacity at constant pressure [J/K/mol]
288.67 K	235
288.92 K	235.9
289.17 K	235.2
289.42 K	236.4
289.67 K	236
289.92 K	235.3
290.17 K	236.5
290.42 K	236.3
290.68 K	238
290.93 K	236.4
291.18 K	236.8
291.43 K	238
291.68 K	237.8
291.93 K	236.7
292.18 K	237.4
292.43 K	238.5
292.68 K	239
292.93 K	239.6
293.18 K	239.6
293.43 K	240
293.68 K	240.4
293.93 K	239.8
294.18 K	239.1
294.44 K	239.1
294.69 K	240.8
294.94 K	240.4
295.19 K	239.8
295.44 K	240.5
295.69 K	241.6
295.94 K	241.1
296.19 K	240.8
296.44 K	242.1
296.69 K	241.7
296.94 K	241.2
297.19 K	241.5
297.44 K	242.2
297.69 K	241.6
297.94 K	242.5
298.19 K	242.7
298.44 K	242.8
298.69 K	241.8
298.94 K	242.3
299.19 K	242.3
299.44 K	242.2
299.69 K	242.9
299.94 K	244.1
300.19 K	244.9
300.44 K	244.3
300.69 K	244.4
300.94 K	244.7
301.19 K	244.5
301.44 K	243.4
301.69 K	244.2
301.94 K	244.9
302.19 K	245.3
302.44 K	245.1
302.69 K	244.8
302.94 K	245.6
303.19 K	246.4
303.44 K	246.5
303.69 K	247
303.94 K	247.4
304.19 K	247.3
304.44 K	247.5
304.69 K	246.8
304.94 K	246.8
305.19 K	247.1
305.44 K	248.1
305.69 K	247.8
305.94 K	247.5
306.19 K	247.7
306.44 K	248.9
306.69 K	248.8
306.94 K	249.6
307.19 K	250.4
307.44 K	250.1
307.69 K	250.1
307.94 K	249.4
308.19 K	249.7
308.44 K	250.1
308.69 K	249.7
308.94 K	250.3
309.19 K	250.8
309.44 K	251.7
309.69 K	252.9
309.94 K	251.9
310.19 K	253.2
310.44 K	253.8
310.69 K	253.1
310.94 K	253.2
311.19 K	252.6
311.44 K	252.4
311.69 K	253.1
311.94 K	252.2
312.19 K	252.8
312.44 K	252.4
312.69 K	253.6
312.94 K	254
313.19 K	253.3
313.44 K	254.6
313.69 K	255.2
313.94 K	255
314.19 K	255.4
314.44 K	256.5
314.69 K	256.9
314.94 K	256.1
315.19 K	256
315.44 K	255.8
315.69 K	255.8
315.94 K	256
316.19 K	256.4
316.44 K	256.4
316.69 K	257.2
316.94 K	258
